# Tests used:
# [1] = target: T1, Ikaros (Homo sapiens, UniProt Q13422); assay: Helios Cellular Degradation Assay, Ikaros readout (flow cytometry, Ikaros-Alexa488 antibody staining, 72 h); type: cell-based; settings: Jurkat cells, 72 h incubation, flow cytometry; for Dmax: Jurkat, read-out: Ikaros Dmax
# T1 construct: fluorescently labelled antibodies against Helios and Ikaros; endogenous in cells; host or cells: Jurkat cells
# Procedure: (§1) Helios Cellular Degradation Assay
# (§2) Jurkat cells were plated at 80,000 cells/well in 40 μL RPMI+10% FBS in a 384 well cell culture plate prior to using acoustic dispensing technology for adding compound of interest. Cell cultures were incubated for 72 h at 37° C. and 5% CO2. In order to facilitate analysis, cell cultures were spun down at 200 rpm for 5 min and the supernatant was discarded. After shaking the plate to dislodge the cell pellet, cells were resuspended in 50 μL of Fixation Buffer (eBioScience FoxP3 buffer set 0000) for 60 min at room temperature. After centrifuging and discarding the supernatant, cells were permeabilized with 50 μL of Permeabilization buffer (eBioScience FoxP3 buffer set 00-5523-00) for 10 min at room temperature. Following permeabilization, cells were spun down and the supernatant was replaced with 20 μL fluorescently labelled antibodies against Helios and Ikaros or corresponding Isotype controls in 1× Permeabilization buffer (Ikaros-Alexa488 [Biolegend, Cat #368408, 1:50], Helios-PE [CST, Cat #29360, 1:50]) and staining reactions were incubated for 1 h at room temperature; protected from light. Subsequently, 30 μL of 1× Permeabilization buffer was added prior to centrifuging the cells and discarding the supernatant. Stained cells were resuspended in 25 μL of flow cytometry staining buffer (PBS+0.2% BSA) and analyzed using an Intellicyt Ique Plus flow cytometer.
# as §2, with “00-5523-00)” for “0000)”
# [2] = target: T2, Helios (Homo sapiens, UniProt Q96SW2+Q9UKS7); assay: Helios Cellular Degradation Assay (flow cytometry, Helios-PE antibody staining, 72 h); type: cell-based; settings: Jurkat cells, 72 h incubation, flow cytometry; for Dmax: Jurkat, read-out: Helios Dmax
# T2 construct: fluorescently labelled antibodies against Helios and Ikaros; endogenous in cells; host or cells: Jurkat cells
# Procedure: as §1, §2
# as §2, with “00-5523-00)” for “0000)”
# T1 sequence (Q96SW2 whole entry partner): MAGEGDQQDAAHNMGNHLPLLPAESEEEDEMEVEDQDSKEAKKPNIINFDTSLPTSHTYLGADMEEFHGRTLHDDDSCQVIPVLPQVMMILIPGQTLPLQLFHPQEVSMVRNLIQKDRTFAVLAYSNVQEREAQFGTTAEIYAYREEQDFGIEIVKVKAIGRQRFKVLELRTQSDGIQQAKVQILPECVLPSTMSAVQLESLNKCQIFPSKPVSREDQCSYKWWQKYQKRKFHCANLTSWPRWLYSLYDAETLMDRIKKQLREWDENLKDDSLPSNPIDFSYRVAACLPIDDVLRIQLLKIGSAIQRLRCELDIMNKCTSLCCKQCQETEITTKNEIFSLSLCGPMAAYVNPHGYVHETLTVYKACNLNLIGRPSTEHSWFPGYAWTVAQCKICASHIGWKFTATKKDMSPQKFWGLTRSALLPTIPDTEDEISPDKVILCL
# T1 sequence (Q16531 whole entry partner): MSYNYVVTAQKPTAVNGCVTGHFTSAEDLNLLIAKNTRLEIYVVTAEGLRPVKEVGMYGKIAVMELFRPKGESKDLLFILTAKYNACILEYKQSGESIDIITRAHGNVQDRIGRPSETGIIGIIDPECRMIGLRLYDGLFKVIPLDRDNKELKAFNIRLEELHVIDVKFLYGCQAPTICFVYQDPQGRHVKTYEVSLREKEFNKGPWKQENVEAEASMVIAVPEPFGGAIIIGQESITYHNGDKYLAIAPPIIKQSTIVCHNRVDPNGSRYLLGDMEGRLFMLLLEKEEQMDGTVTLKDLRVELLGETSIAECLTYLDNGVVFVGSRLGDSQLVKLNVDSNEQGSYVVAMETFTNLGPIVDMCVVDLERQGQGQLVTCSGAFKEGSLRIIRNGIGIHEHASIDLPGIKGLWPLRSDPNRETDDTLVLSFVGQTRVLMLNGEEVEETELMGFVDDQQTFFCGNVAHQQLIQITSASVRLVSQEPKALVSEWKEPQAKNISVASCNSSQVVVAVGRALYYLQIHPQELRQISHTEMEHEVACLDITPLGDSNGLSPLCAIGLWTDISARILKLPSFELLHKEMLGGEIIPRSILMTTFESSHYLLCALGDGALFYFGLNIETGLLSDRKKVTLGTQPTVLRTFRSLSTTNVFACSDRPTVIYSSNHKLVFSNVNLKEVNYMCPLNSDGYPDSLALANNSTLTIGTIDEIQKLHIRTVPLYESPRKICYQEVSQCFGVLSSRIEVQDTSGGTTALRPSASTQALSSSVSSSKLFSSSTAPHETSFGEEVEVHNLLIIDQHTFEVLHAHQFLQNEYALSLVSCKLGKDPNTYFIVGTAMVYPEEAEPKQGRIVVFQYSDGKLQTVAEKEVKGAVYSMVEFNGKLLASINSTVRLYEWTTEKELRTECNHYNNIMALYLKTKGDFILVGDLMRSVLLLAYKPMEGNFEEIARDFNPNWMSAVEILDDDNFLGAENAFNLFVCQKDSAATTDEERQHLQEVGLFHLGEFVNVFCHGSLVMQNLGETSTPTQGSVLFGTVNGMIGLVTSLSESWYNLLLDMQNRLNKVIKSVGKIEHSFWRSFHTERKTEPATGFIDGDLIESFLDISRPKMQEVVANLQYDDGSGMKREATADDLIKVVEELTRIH
# T1 sequence (Q13422 whole entry): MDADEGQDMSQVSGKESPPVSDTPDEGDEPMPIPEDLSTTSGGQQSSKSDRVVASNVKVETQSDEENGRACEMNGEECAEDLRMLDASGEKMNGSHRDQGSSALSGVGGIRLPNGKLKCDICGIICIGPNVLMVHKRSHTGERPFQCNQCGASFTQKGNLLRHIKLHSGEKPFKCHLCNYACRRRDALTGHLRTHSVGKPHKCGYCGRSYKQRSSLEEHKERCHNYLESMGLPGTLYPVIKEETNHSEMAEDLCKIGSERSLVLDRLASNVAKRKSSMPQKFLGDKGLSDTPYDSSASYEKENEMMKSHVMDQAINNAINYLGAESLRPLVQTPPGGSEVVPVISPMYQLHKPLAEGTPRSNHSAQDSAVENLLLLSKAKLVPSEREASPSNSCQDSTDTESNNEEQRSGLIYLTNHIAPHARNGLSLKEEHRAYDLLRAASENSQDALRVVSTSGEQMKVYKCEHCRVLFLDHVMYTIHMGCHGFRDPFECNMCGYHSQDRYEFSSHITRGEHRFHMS
# T2 sequence (Q9UKS7 whole entry): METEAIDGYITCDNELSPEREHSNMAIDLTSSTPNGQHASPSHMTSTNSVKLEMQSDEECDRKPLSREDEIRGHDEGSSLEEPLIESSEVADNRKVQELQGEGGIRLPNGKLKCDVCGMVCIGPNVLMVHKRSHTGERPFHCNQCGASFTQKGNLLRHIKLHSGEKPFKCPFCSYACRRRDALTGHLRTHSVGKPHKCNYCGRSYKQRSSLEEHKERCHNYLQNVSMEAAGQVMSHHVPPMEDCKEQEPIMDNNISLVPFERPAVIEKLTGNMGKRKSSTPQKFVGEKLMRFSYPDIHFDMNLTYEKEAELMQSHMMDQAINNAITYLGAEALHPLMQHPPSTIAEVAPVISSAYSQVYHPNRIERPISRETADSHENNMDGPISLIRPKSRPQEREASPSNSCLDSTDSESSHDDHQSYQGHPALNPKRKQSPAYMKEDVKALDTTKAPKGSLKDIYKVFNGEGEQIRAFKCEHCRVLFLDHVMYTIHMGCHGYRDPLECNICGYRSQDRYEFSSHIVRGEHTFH
# T2 sequence (Q96SW2 whole entry): as the sequence (Q96SW2 whole entry partner) above
# T2 sequence (Q16531 whole entry partner): as the sequence (Q16531 whole entry partner) above
compound,measurement,setting,value
"CCN(Cc1ccncc1)Cc1ccnc(-c2ccc3c(c2)CN(C2CCC(=O)NC2=O)C3=O)c1 (centres unmarked) [Example 22, 3-(5-(4-((ethyl(pyridin-4-ylmethyl)amino)methyl)pyridin-2-yl)-1-oxoisoindolin-2-yl) piperidine-2,6-dione]",DC50,[1],> 10 µM
same,Dmax,[1],33%
same,DC50,[2],0.537 µM
same,Dmax,[2],67%
"O=C1CCC(N2Cc3cc(-c4cc(CN5CCC(N6CCCC6)CC5)ccn4)ccc3C2=O)C(=O)N1 (centres unmarked) [Example 23, 3-(1-oxo-5-(4-((4-(pyrrolidin-1-yl)piperidin-1-yl)methyl)pyridin-2-yl)isoindolin-2-yl)piperidine-2,6-dione]",DC50,[1],> 10 µM
same,Dmax,[1],14%
same,DC50,[2],> 10 µM
same,Dmax,[2],22%
"O=C1CCC(N2Cc3cc(-c4cc(CN5CCN(C(=O)c6ccco6)CC5)ccn4)ccc3C2=O)C(=O)N1 (centres unmarked) [Example 24, 3-(5-(4-((4-(furan-2-carbonyl)piperazin-1-yl)methyl)pyridin-2-yl)-1-oxoisoindolin-2-yl)piperidine-2,6-dione]",DC50,[1],> 10 µM
same,Dmax,[1],11%
same,DC50,[2],> 10 µM
same,Dmax,[2],3%
"O=C1CCC(N2Cc3cc(-c4cc(CN5CCN(c6ccncc6)CC5)ccn4)ccc3C2=O)C(=O)N1 (centres unmarked) [Example 25, 3-(1-oxo-5-(4-((4-(pyridin-4-yl)piperazin-1-yl)methyl)pyridin-2-yl)isoindolin-2-yl)piperidine-2,6-dione]",DC50,[1],> 10 µM
same,Dmax,[1],0%
same,DC50,[2],> 10 µM
same,Dmax,[2],0%
"O=C1CCC(N2Cc3cc(-c4cc(CN5CCN(c6cnccn6)CC5)ccn4)ccc3C2=O)C(=O)N1 (centres unmarked) [Example 26, 3-(1-oxo-5-(4-((4-(pyrazin-2-yl)piperazin-1-yl)methyl)pyridin-2-yl)isoindolin-2-yl)piperidine-2,6-dione]",DC50,[1],> 10 µM
same,Dmax,[1],15%
same,DC50,[2],> 10 µM
same,Dmax,[2],6%
"Cc1cccc(N2CCN(Cc3ccnc(-c4ccc5c(c4)CN(C4CCC(=O)NC4=O)C5=O)c3)CC2C)c1 (centres unmarked) [Example 27, 3-(5-(4-((3-methyl-4-(m-tolyl)piperazin-1-yl)methyl)pyridin-2-yl)-1-oxoisoindolin-2-yl)piperidine-2,6-dione]",DC50,[1],> 10 µM
same,Dmax,[1],7%
same,DC50,[2],> 10 µM
same,Dmax,[2],36%
"CC(=O)N1CCN(Cc2ccnc(-c3ccc4c(c3)CN(C3CCC(=O)NC3=O)C4=O)c2)CC1 (centres unmarked) [Example 28, 3-(5-(4-((4-acetylpiperazin-1-yl)methyl)pyridin-2-yl)-1-oxoisoindolin-2-yl)piperidine-2,6-dione]",DC50,[1],> 10 µM
same,Dmax,[1],13%
same,DC50,[2],> 10 µM
same,Dmax,[2],17%
"CN1CCC(N(C)Cc2ccnc(-c3ccc4c(c3)CN(C3CCC(=O)NC3=O)C4=O)c2)C1 (centres unmarked) [Example 29, 3-(5-(4-((methyl(1-methylpyrrolidin-3-yl)amino)methyl)pyridin-2-yl)-1-oxoisoindolin-2-yl)piperidine-2,6-dione]",DC50,[1],> 10 µM
same,Dmax,[1],6%
same,DC50,[2],7.51 µM
same,Helios Dmax,[2],55%
"CN1CCC[C@H]1CC1CCCCN1Cc1ccnc(-c2ccc3c(c2)CN(C2CCC(=O)NC2=O)C3=O)c1 (stereo partly drawn) [Example 30, 3-(5-(4-((2-(((S)-1-methylpyrrolidin-2-yl)methyl)piperidin-1-yl)methyl)pyridin-2-yl)-1-oxoisoindolin-2-yl)piperidine-2,6-dione]",DC50,[1],> 10 µM
same,Dmax,[1],-1%
same,DC50,[2],> 10 µM
same,Dmax,[2],46%
"CC(=O)N[C@H]1CCN(Cc2ccnc(-c3ccc4c(c3)CN(C3CCC(=O)NC3=O)C4=O)c2)C1 (stereo partly drawn) [Example 31, N-((3S)-1-((2-(2-(2,6-dioxopiperidin-3-yl)-1-oxoisoindolin-5-yl)pyridin-4-yl)methyl)pyrrolidin-3-yl)acetamide]",DC50,[1],> 10 µM
same,Dmax,[1],20%
same,DC50,[2],0.268 µM
same,Dmax,[2],81%
"O=C1CCC(N2Cc3cc(-c4cc(CN5CCN(C(=O)C6CCCO6)CC5)ccn4)ccc3C2=O)C(=O)N1 (centres unmarked) [Example 32, 3-(1-oxo-5-(4-((4-(tetrahydrofuran-2-carbonyl)piperazin-1-yl)methyl)pyridin-2-yl)isoindolin-2-yl) piperidine-2,6-dione]",DC50,[1],> 10 µM
same,Dmax,[1],23%
same,DC50,[2],> 10 µM
same,Dmax,[2],35%
"CN(C)[C@H]1CCN(Cc2ccnc(-c3ccc4c(c3)CN(C3CCC(=O)NC3=O)C4=O)c2)C1 (stereo partly drawn) [Example 33, 3-(5-(4-(((S)-3-(dimethylamino)pyrrolidin-1-yl)methyl)pyridin-2-yl)-1-oxoisoindolin-2-yl)piperidine-2,6-dione]",DC50,[1],> 10 µM
same,Dmax,[1],2%
same,DC50,[2],> 10 µM
same,Dmax,[2],50%
"CN(CC(=O)N(C)C)Cc1ccnc(-c2ccc3c(c2)CN(C2CCC(=O)NC2=O)C3=O)c1 (centres unmarked) [Example 34, 2-(((2-(2-(2,6-dioxopiperidin-3-yl)-1-oxoisoindolin-5-yl)pyridin-4-yl)methyl)(methyl)amino)-N,N-dimethylacetamide]",DC50,[1],> 10 µM
same,Dmax,[1],9%
same,DC50,[2],> 10 µM
same,Dmax,[2],26%
"CN1CCN(Cc2ccnc(-c3ccc4c(c3)CN(C3CCC(=O)NC3=O)C4=O)c2)CC1 (centres unmarked) [Example 35, 3-(5-(4-((4-methylpiperazin-1-yl)methyl)pyridin-2-yl)-1-oxoisoindolin-2-yl)piperidine-2,6-dione]",DC50,[1],> 10 µM
same,Dmax,[1],30%
same,DC50,[2],0.869 µM
same,Dmax,[2],63%
O=C1CCC(N2Cc3cc(-c4cc(CN5CCN(Cc6ccccc6)CC5)ccn4)ccc3C2=O)C(=O)N1 (centres unmarked) [Example 36],DC50,[1],> 10 µM
same,Ikaros Dmax,[1],14%
same,DC50,[2],> 10 µM
same,Helios Dmax,[2],11%
"O=C1CN(Cc2ccnc(-c3ccc4c(c3)CN(C3CCC(=O)NC3=O)C4=O)c2)CCN1 (centres unmarked) [Example 37, 3-(1-oxo-5-(4-((3-oxopiperazin-1-yl)methyl)pyridin-2-yl)isoindolin-2-yl)piperidine-2,6-dione]",DC50,[1],> 10 µM
same,Dmax,[1],10%
same,DC50,[2],> 10 µM
same,Dmax,[2],24%
"O=C1CCC(N2Cc3cc(-c4cc(CN5CCC(Cc6ccccc6)CC5)ccn4)ccc3C2=O)C(=O)N1 (centres unmarked) [Example 38, 3-(5-(4-((4-benzylpiperidin-1-yl)methyl)pyridin-2-yl)-1-oxoisoindolin-2-yl)piperidine-2,6-dione]",DC50,[1],> 10 µM
same,Dmax,[1],6%
same,DC50,[2],0.087 µM
same,Dmax,[2],68%
"O=C1CCC(N2Cc3cc(-c4cc(CN5CCc6ccccc6C5)ccn4)ccc3C2=O)C(=O)N1 (centres unmarked) [Example 39, 3-(5-(4-((3,4-dihydroisoquinolin-2(1H)-yl)methyl)pyridin-2-yl)-1-oxoisoindolin-2-yl)piperidine-2,6-dione]",DC50,[1],> 10 µM
same,Dmax,[1],6%
same,DC50,[2],0.444 µM
same,Dmax,[2],58%
"CN(C)C1CCN(Cc2ccnc(-c3ccc4c(c3)CN(C3CCC(=O)NC3=O)C4=O)c2)CC1 (centres unmarked) [Example 40, 3-(5-(4-((4-(dimethylamino)piperidin-1-yl)methyl)pyridin-2-yl)-1-oxoisoindolin-2-yl)piperidine-2,6-dione]",DC50,[1],> 10 µM
same,Dmax,[1],8%
same,DC50,[2],> 10 µM
same,Dmax,[2],9%
"NC(=O)C1CCN(Cc2ccnc(-c3ccc4c(c3)CN(C3CCC(=O)NC3=O)C4=O)c2)CC1 (centres unmarked) [Example 41, 1-((2-(2-(2,6-dioxopiperidin-3-yl)-1-oxoisoindolin-5-yl)pyridin-4-yl)methyl)piperidine-4-carboxamide]",DC50,[1],> 10 µM
same,Dmax,[1],24%
same,DC50,[2],0.727 µM
same,Dmax,[2],80%

# — patent US11548870B2, “Compounds useful as inhibitors of helios protein” (Bristol-Myers Squibb Company, priority 2019, dated 2023)
